Assay [1] is described as follows: Body fat mass by DEXA in Swiss mice fed with a western diet. The assay is classed as in vivo. How it is done: In our investigations, two kinds of diet were used: 1—a standard diet (A04 diet from UAR) containing 3% of lipids and bringing 2900 kcal per kg; 2—a western diet (from UAR too) containing 16% of lipids and bringing 4300 kcal per kg.
D,L-β-Aminoisobutyric acid (BAIBA) was purchased from Sigma-Aldrich. BAIBA has been administered in drinking water at the dose of 100 mg/kg/day or 500 mg/kg/day for 6 weeks, 2 months or 4 months according to the experiments.
The in vivo determination of body fat mass in anesthetized mice has been performed by “DEXA” (Dual Energy X-ray Absorptiometry) (Pietriobelli A., Formica C., Wang Z., Heymsfield S. B., 1996, Am. J. Physiol. 271 (Endocrinol. Metab. 34): E941-E951)). […] It is noteworthy that DEXA also gives for each investigated animal its lean mass that is the total amount of water and proteins (in grams) in the body (excluding the head). Therefore, for a given animal, DEXA allows the determination of the percentage of body fat which is its body fat mass divided by the sum of its body lean and fat masses (fat mass/(lean mass+fat mass)). The “DEXA” apparatus was a Piximus® from Lunar Corporation (Madison, Wis.). Mice were anesthetized thanks to a mixture of xylazine and ketamine. […]
In a third series of experiments, we sought to determine as to whether of 100 mg/kg/day of β-aminoisobutyric acid (BAIBA) would be able to decrease body fat mass in Swiss mice fed with a western diet (i.e. hypercaloric diet). For this purpose, young (4 weeks old at T0) Swiss mice were fed with a hypercaloric western diet (WD), with or without BAIBA in the drinking water (8 mice in each group). For comparison, the experiment included a group of mice (n=8) fed with a standard diet (SD). DEXA was performed one day before the beginning of the treatment (T0) and then two, four and six weeks after the initiation of the experience (T2, T4 and T6, respectively). This allowed us to determine for each animal the variation of body parameters (e.g. fat mass, body weight) for the different periods of the treatment (T0-T2, T2-T4, T4-T6 and T0-T6). For these four DEXA determinations (T0 to T6), mice were not fasted before measurements. In this experiment, BAIBA reduced the gain of body fat mass in Swiss mice fed with a western diet and this beneficial effect was observed from the fourth week of the BAIBA administration. This effect is illustrated in FIG. 3. […] Indeed, during the T0-T6 period control mice fed with the western diet (Controls-WD) gained 4.88±0.83 grams of body fat whereas mice fed with the same diet and receiving BAIBA (BAIBA-WD) gained 3.91±0.59 grams of body fat mass. For comparison, mice fed with the standard diet (Controls-SD) gained 3.18±0.34 grams of body fat during the entire period (T0-T6) of the experiment. • At the end of the treatment (T6), the body fat mass was 4.48±0.33, 6.21±0.85 and 5.25±0.60 grams, respectively for the Controls-SD, Controls-WD and BAIBA-WD groups of mice (15% decrease between Controls-WD and BAIBA-WD). The percentage of body fat ((fat mass)/(fat+lean mass)) was at this time 13.23±0.86, 17.96±2.04 et 15.76±1.53%, respectively in the Controls-SD, Controls-WD and BAIBA-WD groups.
Finally, we sought to determine on the very same animals as to whether fasting would be able to enhance the beneficial effect of BAIBA on body fat mass. Thus, after the fourth DEXA measurement (i.e. DEXA determination at T6), mice were allowed to recover from the anaesthesia for ca. 2 days and were then submitted to a 48-hour period of fast. A last DEXA measurement was then performed in fasted mice. […] Indeed, after the fasting period, body fat mass was 3.10±0.30, 5.40±0.75 et 4.79±0.56 grams, respectively in control mice fed the standard diet (Controls-SD), control mice fed with the western diet (Controls-WD), and mice fed with the western diet and receiving BAIBA (BAIBA-WD). […]

Assay [2] in a line: Plasma glucose, insulin and adiponectin in very young ob/ob mice (5-6 weeks old), 6 weeks. Type of assay: in vivo. The method, then: Plasma glucose was measured on an automatic analyser (Synchron LX20 from Beckman Coulter) with a commercial kit (kit n°472500 from Beckman).
Plasma insulin, adiponectin and leptin were measured by radioimmunoassay (RIA). Insulin was measured with the Insulin-CT kit from Cis Bio International (Gif-sur-Yvette, France), whereas plasma leptin and adiponectin were assessed with kits from Linco Research Inc. (St Charles, Mo.). Leptin was not measured in ob/ob mice since these animals are genetically leptin-deficient (Friedman J. M., Halaas J. L., 1998, Nature 395: 763-770). Results regarding insulin were expressed as recommended by kit manufacturer.
In another experiment, very young ob/ob mice (5-6 weeks old) were treated with 100 mg/kg/d of β-aminoisobutyric acid for 6 weeks and fasted for the last 48 hours. Although plasma glucose was not decreased in treated mice, there was a clear trend toward lower insulin and higher adiponectin. Indeed, plasma insulin was 56±9 and 37±5 μU/ml (p=0.08), respectively in control mice (n=7) and mice treated with β-aminoisobutyric acid (n=7). Plasma adiponectin was 8.0±1.1 and 10.9±1.2 μg/ml (p=0.08), respectively in control mice (n=7) and mice treated with β-aminoisobutyric acid (n=7).

[3] abbreviates: 100 mg/kg/d 6 weeks, very young ob/ob, fasted 48 hours, p=0.08.

For `CC(CN)C(=O)O` (racemic) [BAIBA, D,L-β-Aminoisobutyric acid], in assay [1] (100 mg/kg/day, western diet, T0-T6), the “gain of body fat mass” value was 3.91±0.59 grams. In assay [1] (100 mg/kg/day, western diet, T0-T6, vs Controls-WD), the “reduction of the gain of body fat mass” value is 20%. Also, the body fat lost in assay [1] (100 mg/kg/day, western diet, T4-T6 period) is 0.45±0.30 grams. The body weight in assay [1] (100 mg/kg/day, western diet, after 6 weeks) is reported as 37.0±0.76 grams; in assay [1] (western diet, at the end of the fasting period) it was 33.6±0.9 grams. In addition, the “percentage of body fat ((fat mass)/(fat+lean mass))” value in assay [1] (100 mg/kg/day, western diet, at T6) is on record as 15.76±1.53%. In addition, the body fat mass in assay [1] (100 mg/kg/day, western diet, at T6, fed) was 5.25±0.60 grams; in assay [1] (western diet 6 weeks, after 48-hour fasting period), 4.79±0.56 grams. The “decrease of the percentage of body fat” value in assay [1] (western diet 6 weeks, fasted state) turned out to be 11%; in assay [1] (western diet 6 weeks, fed state), 15%. Also, the “decrease of body fat mass between Controls-WD and BAIBA-WD” value in assay [1] (western diet, at T6) is 15%. For the same compound, the “plasma glucose vs control” value in assay [2] (100 mg/kg/d 6 weeks, very young ob/ob, fasted 48 hours) was “not decreased”. This compound had a plasma adiponectin in assay [2] (setting [3]) of 10.9 ± 1.2 µg/mL. For the same compound, in assay [2] (setting [3]), the plasma insulin is listed as 37±5 μU/ml. The “increase of plasma level of adiponectin” value in assay [2] (obese mice) is “around 35%”.

(Values after US20060167098A1, “Method for the treatment of diseases linked to an accumulation of triglycerides and cholesterol” (Institut National De La Sante ET De LA Recherche Medicale …, priority 2003, published 2006).)
